What was measured:
[1] = NOVARTIS: Cytotoxicity against human hepatocellular carcinoma cell line (Huh7); type: toxicity, cell-based, Huh-7; settings: Huh7 cells (hepatocellular carcinoma cell line)
[2] = system: Plasmodium falciparum; assay: NOVARTIS: Inhibition of Plasmodium falciparum W2 (drug-resistant) proliferation in erythrocyte-based infection assay; type: functional, organism-based
[3] = system: Plasmodium falciparum; assay: NOVARTIS: Inhibition of Plasmodium falciparum 3D7 (drug-susceptible) proliferation in erythrocyte-based infection assay; type: functional, organism-based; settings: Plasmodium falciparum, 3D7
[4] = Plasmodium falciparum, W2, read-out: EC50

Structure (SMILES)	CC50 [1] [nM]	EC50 [2, 4] [nM]	EC50 [3] [nM]	EC50 [2]
CCN(CC)Cc1cc(Nc2ccnc3cc(Cl)ccc23)ccc1O	> 100000	13	10.3	
CC1CCC2C(C)C(=O)OC3OC4(C)CCC1C32OO4 (stereo unspecified)	> 100000	4.58	12	
CCc1ccccc1N=C1c2c(cccc2[N+](=O)[O-])C(=O)C1C(C)=O (stereo unspecified)	> 100000	15.4	11.3	
CC(C=NNC(N)=S)=NNC(N)=S	> 100000	7.23	8.94	
CCC(c1nc2ccccc2c(=O)n1-c1ccc(F)c(Cl)c1)N(CCc1ccccc1)C(=O)COc1ccc(Cl)cc1 (stereo unspecified)	> 6450	< 0.849	941	
COC(OC)C(C)=NNC(N)=S	> 100000	3.62	8.92	
CCOC(=O)C1=C(c2ccccc2)N=c2sc(=Cc3cc(OC)c(OC)c(OC)c3)c(=O)n2C1c1c(OC)ccc2ccccc12 (stereo unspecified)	> 100000		> 7820	No fit
CCCOC(=O)C1=C(C)NC2=C(C(=O)CC(c3ccc(OC)c(OC)c3)C2)C1c1ccccc1C (stereo unspecified)	> 100000	9.78	12.7	
COc1ccc(C2CC(=O)C3=C(C2)NC(C)=C(C(=O)OC(C)C)C3c2ccc(Cl)cc2Cl)cc1OC (stereo unspecified)	> 100000	3.91	6.3	
CCc1nc2nc(C)cc(Nc3ccc(I)cc3)n2n1	> 100000	< 3	260	
CCCCN(CCCC)C(=O)Cn1ccc(=N)c2ccccc21	> 100000	< 0.151	3740	
COCCOC(=O)C1=C(C)NC2=C(C(=O)CC(c3ccc(OC)c(OC)c3)C2)C1c1ccccc1Cl (stereo unspecified)	> 100000	13.2	50.4	
CCOC(=O)c1cnc2cc(OCC3CC3)c(OCC3CC3)cc2c1O	> 100000	< 0.0706	< 5.72	
COC(=O)c1sc2nc(CN3CCC(C)CC3)ccc2c1NC(=O)c1ccc(C)s1	> 100000		9700	No fit
CCOC(=O)c1cnc2c(OC)cccc2c1Nc1cccc(C(F)(F)F)c1	26000		926	No fit
CCOC(=O)c1sc2nc(N)c(C#N)c(-c3cccs3)c2c1N	> 100000		1130	No fit
Cc1cc(C)c(S(=O)(=O)N2CCC(NC(=O)c3ccccc3)CC2)c(C)c1	> 100000		1070	No fit
CCc1c(C#N)c(N)nc(SCC(=O)c2ccc(C)cc2)c1C#N	> 100000		1200	No fit
COc1ccc(OC)c(-c2ccc(O)c(CN3CCC(c4ccccc4)CC3)c2)c1	> 100000	9.12	508	
CCOC(=O)C1=C(C)NC2=C(C(=O)CC(c3ccc(OC)c(OC)c3)C2)C1c1ccccc1Cl (stereo unspecified)	> 100000	8.74	5.05	
CCOC(=O)c1cc(-c2ccc(OC)cc2)n(CCC(=O)Nc2cccc(C(C)=O)c2)c1C	> 100000	8.49	21.8	
CCOC(=O)C1=C(C)NC2=C(C(=O)CC(c3ccc(OC)c(OC)c3)C2)C1c1ccc(F)cc1 (stereo unspecified)	> 100000	12.4	18.3	
CCCOC(=O)C1=C(C)NC2=C(C(=O)CC(c3ccc(OC)c(OC)c3)C2)C1c1cccc(Cl)c1Cl (stereo unspecified)	> 100000	11.9	48.4	
CCCCOc1ccc(N(C(C)=O)C2=C(N3CCCCC3)C(=O)c3ccccc3C2=O)cc1	54400	4.14	5.64	
COc1ccc(C2CC(=O)C3=C(C2)NC(C)=C(C(=O)OC(C)C)C3c2ccccc2C)cc1OC (stereo unspecified)	> 100000	14.5	9.98	
COc1ccc(C2CC(=O)C3=C(C2)NC(C)=C(C(=O)OC2CCCC2)C3c2ccccc2Cl)cc1OC (stereo unspecified)	> 100000	7.38	55.8	

Structure (SMILES)	CC50 [1] [nM]	EC50 [2, 4] [nM]	EC50 [3] [nM]	EC50 [2]
O=C1N(Cc2cc3ccccc3s2)CC2CN(Cc3cccc4c3OCO4)CCN12 (stereo unspecified)	> 10000	< 0.572	727	
C=CC1CN2CCC1C(C(O)c1ccnc3ccc(OC)cc13)C2 (stereo unspecified)	> 100000	15.1	7.21	
COC(=O)C1=C(C)NC2=C(C(=O)CC(c3ccc(OC)c(OC)c3)C2)C1c1ccc(Cl)cc1Cl (stereo unspecified)	> 100000	14.3	169	
COC(=O)C1=C(C)NC2=C(C(=O)CC(c3ccc(OC)c(OC)c3)C2)C1c1ccc(F)cc1 (stereo unspecified)	> 100000	14	27.9	
COCCOC(=O)C1=C(C)NC2=C(C(=O)CC(c3ccc(OC)c(OC)c3)C2)C1c1ccc(Cl)cc1Cl (stereo unspecified)	> 100000	13.1	22.4	
COc1ccc(C2CC(=O)C3=C(C2)NC(C)=C(C(=O)OC2CCCC2)C3c2ccccc2C)cc1OC (stereo unspecified)	> 100000	13.1	33.4	
CCOC(=O)C1=C(C)NC2=C(C(=O)CC(c3ccc(OC)c(OC)c3)C2)C1c1ccc(Cl)cc1Cl (stereo unspecified)	> 100000	11.6	25.4	
CCCOC(=O)C1=C(C)NC2=C(C(=O)CC(c3ccc(OC)c(OC)c3)C2)C1c1ccccc1Br (stereo unspecified)	> 100000	11.2	76.6	
CCCOC(=O)C1=C(C)NC2=C(C(=O)CC(c3ccc(OC)c(OC)c3)C2)C1c1ccccc1F (stereo unspecified)	> 100000	5.41	6.71	
CCOC(=O)C1=C(C)NC2=C(C(=O)CC(c3ccc(OC)c(OC)c3)C2)C1c1ccc(Br)cc1 (stereo unspecified)	> 100000	4.81	18.2	
CCOc1cc2c(cc1OCC)C(c1ccc(O)c(Cl)c1)NCC2 (stereo unspecified)	> 97900	12.5	157	
COc1ccc(C2CC(=O)C3=C(C2)NC(C)=C(C(=O)OC2CCCC2)C3c2ccc([N+](=O)[O-])cc2)cc1OC (stereo unspecified)	> 100000	14.8	31	
OC1=C2C(=Nc3ccccc3SC2c2cccs2)c2ccccc21 (stereo unspecified)	49500	< 2.47	42.8	
COc1ccc(C2CC3=NC(C)=C(C(=O)OC(C)C)C(c4ccccc4Cl)C3=C(O)C2)cc1OC (stereo unspecified)	> 100000	4.11	6.21	
O=C(CCl)NCCCCNc1ccnc2cc(Cl)ccc12	> 10000		> 811	No fit
COc1ccc(-n2c(SCC(=O)Nc3cc(Cl)ccc3OC)nnc2-c2ccccc2)cc1	> 11400	< 1.06	> 1100	
COCCOC(=O)C1=C(C)NC2=C(C(=O)CC(c3ccc(OC)c(OC)c3)C2)C1c1ccccc1F (stereo unspecified)	> 100000	11.8	82	
CCCOC(=O)C1=C(C)NC2=C(C(=O)CC(c3ccc(OC)c(OC)c3)C2)C1c1ccc(Cl)cc1Cl (stereo unspecified)	> 100000	4.36	7.62	
CC1N=C(c2ccc(NC(=O)c3ccc(C(=O)Nc4ccc(C5=NC(C)C(C)N5)cc4)cc3)cc2)NC1C (stereo unspecified)	> 100000	14.8	57.6	
CCCCCCc1cc2cc(-c3nc4ccccc4[nH]3)c(=Nc3ccccc3C)oc2cc1O	> 100000		2120	No fit
CC(C)(C)c1cc(CCC(=O)Nc2c3c(nc4ccccc24)N(c2cccc(Cl)c2)CC3)cc(C(C)(C)C)c1O	> 100000		6650	No fit
CN1C(=O)N(C)C(NNC(N)=S)C1NNC(N)=S (stereo unspecified)	> 100000	6.21	8.92	
COc1cc(NC(C)CCCN(Cc2ccc(Cl)cc2)C(=O)Nc2ccccc2F)c2ncccc2c1 (stereo unspecified)	> 8250	< 0.572	> 1090	
CCOC(=O)C(=O)N1c2ccc(OC)cc2-c2c(ssc2=S)C1(C)C	> 100000	3.19	2.43	
CCC(c1nc2ccccc2c(=O)n1-c1ccccc1OC)N(CCc1ccccc1)C(=O)CCc1ccccc1 (stereo unspecified)	4170	< 0.572	134	
Cc1nc2cc(-c3ccc(Br)cc3)nn2c(O)c1C	> 100000		2740	No fit

Source: ChEMBL document CHEMBL1156829 (Proc Natl Acad Sci U S A, 2008)
